From patent publication US11021515B2, “Therapeutically active compounds and their methods of use” (Agios Pharmaceuticals, Inc., priority 2013, dated 2021)
pIC50: −log10 of the molar value.

Tests used:
U87MG cells = test: Cellular assay, inhibition of 2-HG production in U87MG cells; format: cell-based; settings: Homo sapiens, U-87 MG, 48 h
Experimental: Cells (HT1080 or U87MG) are grown in T125 flasks in DMEM containing 10% FBS, 1× penicillin/streptomycin and 500 ug/mL G418 (present in U87MG cells only). They are harvested by trypsin and seeded into 96 well white bottom plates at a density of 5000 cell/well in 100 ul/well in DMEM with 10% FBS. […] Cells are incubated overnight at 37° C. in 5% CO2. The next day test compounds are made up at 2× the final concentration and 100 ul are added to each cell well. The final concentration of DMSO is 0.2% and the DMSO control wells are plated in row G. The plates are then placed in the incubator for 48 hours. […] The cell plate is placed back in the incubator for another 24 hours. At 72 hours post compound addition, 10 mL/plate of Promega Cell Titer Glo reagent is thawed and mixed. The cell plate is removed from the incubator and allowed to equilibrate to room temperature. Then 100 ul of Promega Cell Titer Glo reagent is added to each well of media. The cell plate is then placed on an orbital shaker for 10 minutes and then allowed to sit at room temperature for 20 minutes. The plate is then read for luminescence with an integration time of 500 ms.

IDH1 R132C = IDH1 R132C (Homo sapiens (Human), UniProt O75874, R132C); test: In vitro NADPH depletion assay for IDH1m inhibitors (R132C); format: biochemical; settings: IDH1 R132C enzyme, read-out: IDH R132C IC50
Sequence of IDH1 R132C (O75874 whole entry R132C): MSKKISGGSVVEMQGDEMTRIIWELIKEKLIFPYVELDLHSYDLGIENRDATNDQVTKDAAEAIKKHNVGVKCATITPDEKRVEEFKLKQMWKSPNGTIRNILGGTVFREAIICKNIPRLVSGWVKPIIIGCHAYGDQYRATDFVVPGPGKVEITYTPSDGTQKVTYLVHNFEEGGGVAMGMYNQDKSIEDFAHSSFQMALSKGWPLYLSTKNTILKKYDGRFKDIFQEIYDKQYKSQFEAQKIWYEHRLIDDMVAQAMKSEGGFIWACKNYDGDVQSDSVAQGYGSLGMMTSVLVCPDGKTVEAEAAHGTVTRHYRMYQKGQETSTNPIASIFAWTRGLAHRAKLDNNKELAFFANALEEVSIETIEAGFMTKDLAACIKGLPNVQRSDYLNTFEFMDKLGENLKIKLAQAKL
Experimental: (§1) A test compound is prepared as 10 mM stock in DMSO and diluted to 50× final concentration in DMSO, for a 50 μl reaction mixture. IDH enzyme activity converting alpha-ketoglutarate to 2-hydroxyglutaric acid is measured using a NADPH depletion assay. In the assay the remaining cofactor is measured at the end of the reaction with the addition of a catalytic excess of diaphorase and resazurin, to generate a fluorescent signal in proportion to the amount of NADPH remaining. […] The reaction is started with the addition of […] Substrate Mix ([…] NADPH, 5 mM alpha-ketoglutarate, in Assay Buffer) and the mixture is incubated for 90 minutes at room temperature.
The concentration of NADPH and alpha-ketoglutarate in the Substrate Buffer is 20 μM and 1 mM, respectively.

IDH1 R132H = IDH1 R132H (Homo sapiens (Human), UniProt O75874, R132H); test: In vitro NADPH depletion assay for IDH1m inhibitors (R132H); format: biochemical; settings: IDH1 R132H enzyme, read-out: IDH R132H IC50
Sequence of IDH1 R132H (O75874 whole entry R132H): as the sequence (O75874 whole entry R132C) above, with C132H counted along it
Experimental: as §1

SMILES | pIC50 (U87MG cells) | pIC50 (IDH1 R132C) | pIC50 (IDH1 R132H)
CS(=O)(=O)c1cc(F)cc(N(C(=O)[C@@H]2CCC(=O)N2c2cc(C#N)ccn2)C(C(=O)NC2CCC(F)(F)CC2)c2ccccc2Cl)c1 (mixture of isomers) [Compound 105, (2S)—N-(1-(2-Chlorophenyl)-2-((4,4-difluorocyclohexyl)amino)-2-oxoethyl)-1-(4-cyanopyridin-2-yl)-N-(3-fluoro-5-(methylsulfonyl)phenyl)-5-oxopyrrolidine-2-carboxamide] | > 7.00 | – | –
CS(=O)(=O)c1cc(F)cc(N(C(=O)[C@@H]2CCC(=O)N2c2cc(C#N)ccn2)C(C(=O)NC2CC(F)(F)C2)c2ccccc2Cl)c1 (mixture of isomers) [Compound 110, (2S)—N-(1-(2-Chlorophenyl)-2-((3,3-difluorocyclobutyl)amino)-2-oxoethyl)-1-(4-cyanopyridin-2-yl)-N-(3-fluoro-5-(methylsulfonyl)phenyl)-5-oxopyrrolidine-2-carboxamide] | > 7.00 | > 7.00 | > 7.00
N#Cc1ccnc(N2C(=O)OC[C@H]2C(=O)N(c2cccc(F)c2)[C@H](C(=O)NC2CCC(F)(F)CC2)c2ccccc2Cl)c1 [Compound 78, (S)—N—((S)-1-(2-Chlorophenyl)-2-((4,4-difluorocyclohexyl)amino)-2-oxoethyl)-3-(4-cyano-pyridin-2-yl)-N-(3-fluorophenyl)-2-oxooxazolidine-4-carboxamide] | > 7.00 | – | –
CCOC(=O)CN1C[C@@H](C(=O)N(c2cccc(F)c2)[C@H](C(=O)NC2CC(F)(F)C2)c2ccccc2Cl)N(c2cc(C#N)ccn2)C1=O [Compound 94, Ethyl 2-((4S)-4-((1-(2-chlorophenyl)-2-((3,3-difluorocyclobutyl)amino)-2-oxoethyl)(3-fluorophenyl)carbamoyl)-3-(4-cyanopyridin-2-yl)-2-oxoimidazolidin-1-yl)acetate] | > 7.00 | – | –
CS(=O)(=O)c1cc(F)cc(N(C(=O)[C@@H]2CCC(=O)N2c2nccc(C#N)n2)[C@H](C(=O)NC2CC(F)(F)C2)c2ccccc2Cl)c1 [Compound 109, (S)—N—((S)-1-(2-Chlorophenyl)-2-((3,3-difluorocyclobutyl)amino)-2-oxoethyl)-1-(4-cyanopyrimidin-2-yl)-N-(3-fluoro-5-(methylsulfonyl)phenyl)-5-oxopyrrolidine-2-carboxamide] | 6.30 to 7.00 | – | –

Now from value to molecule:

pIC50 (U87MG cells) | pIC50 (IDH1 R132C) | pIC50 (IDH1 R132H) | SMILES
6.30 to 7.00 | – | – | O=C(NC1CC(F)(F)C1)[C@H](c1ccccc1Cl)N(C(=O)[C@@H]1CCC(=O)N1c1ccccn1)c1cccc(F)c1 [Compound 5]
– | 6.30 to 7.00 | – | O=C(NC1CC(F)(F)C1)[C@H](c1ccccc1Cl)N(C(=O)[C@@H]1CCC(=O)N1c1cccc(F)n1)c1cccc(F)c1 [Compound 11]
– | 6.30 to 7.00 | 6.30 to 7.00 | O=C(NC1CC(F)(F)C1)[C@H](c1ccccc1Cl)N(C(=O)[C@@H]1CCC(=O)N1c1nccc2ccccc12)c1cccc(F)c1 [Compound 16]
> 7.00 | – | – | O=C(NC1CC(F)(F)C1)[C@H](c1ccccc1Cl)N(C(=O)[C@@H]1CCC(=O)N1c1cnccn1)c1cccc(F)c1 [Compound 18]
6.30 to 7.00 | – | – | O=C(NC1CC(F)(F)C1)[C@H](c1ccccc1Cl)N(C(=O)[C@@H]1CCC(=O)N1c1ccccc1)c1cccc(F)c1 [Compound 23]
> 7.00 | – | – | N#Cc1ccnc(N2C(=O)CC[C@H]2C(=O)N(c2cccc(C3(O)CC3)c2)[C@H](C(=O)NC2CC(F)(F)C2)c2ccccc2Cl)c1 [Compound 140, (S)—N—((S)-1-(2-Xhlorophenyl)-2-(3,3-difluorocyclobutylamino)-2-oxoethyl)-1-(4-cyanopyridin-2-yl)-N-(3-(1-hydroxycyclopropyl)phenyl)-5-oxopyrrolidine-2-carboxamide]
